Our source for the IC50 values is US20210038607A1, “OXADIAZOLYLTHIOPHENE DERIVATIVES USEFUL AS HISTONE DEACETYLASE INHIBITORS” (Karus Therapeutics Limited, priority 2018, published 2021).

One test deals with T1, Human HDAC1 (Homo sapiens, UniProt Q13547).
T1 construct: full length with C-terminal His-tag and C-terminal FLAG-tag; His (C); FLAG (C); host or cells: baculovirus expression system
The experiment in a line: HDAC1 biochemical assay, AMC-labeled peptide substrate. To be noted: read-out: HDAC Isoform IC50 (nM) 1. The procedure, abridged: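 Two-step fluorogenic read: HDAC1 deacetylates 50 μM acetyl-lysine AMC peptide RHKK(Ac)AMC for 1 h at 30° C (pH 8.0, 1% DMSO, with compound), then developer digests the product for fluorescence at Ex/Em 360/460. Enzyme is full-length human, His/FLAG-tagged, insect-cell expressed, at 0.3 ng/ul.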

In a further test the target is T2, Human HDAC2 (Homo sapiens, UniProt Q92769).
T2 construct: full length with C-terminal GST-tag; GST (C); host or cells: baculovirus expression system
The experiment in a line: HDAC2 biochemical assay, AMC-labeled peptide substrate. To be noted: read-out: HDAC Isoform IC50 (nM) 2. The procedure, abridged: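 Full-length human HDAC2 with C-terminal GST tag, baculovirus-expressed, at 0.07 ng/ul with 50 μM RHKK(Ac)AMC substrate in Tris-HCl pH8.0 buffer with BSA, 1% DMSO final. Incubated 1 hour at 30° C with compounds, then developer added; fluorescence read at 360/460 Ex/Em.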

In the next test the target is T3, Human HDAC7 (Homo sapiens, UniProt Q8WUI4).
T3 construct: (a.a. 518-end) with N-terminal GST tag; GST (N); host or cells: baculovirus expression system
T3 sequence (Q8WUI4 518-952 limits assumed): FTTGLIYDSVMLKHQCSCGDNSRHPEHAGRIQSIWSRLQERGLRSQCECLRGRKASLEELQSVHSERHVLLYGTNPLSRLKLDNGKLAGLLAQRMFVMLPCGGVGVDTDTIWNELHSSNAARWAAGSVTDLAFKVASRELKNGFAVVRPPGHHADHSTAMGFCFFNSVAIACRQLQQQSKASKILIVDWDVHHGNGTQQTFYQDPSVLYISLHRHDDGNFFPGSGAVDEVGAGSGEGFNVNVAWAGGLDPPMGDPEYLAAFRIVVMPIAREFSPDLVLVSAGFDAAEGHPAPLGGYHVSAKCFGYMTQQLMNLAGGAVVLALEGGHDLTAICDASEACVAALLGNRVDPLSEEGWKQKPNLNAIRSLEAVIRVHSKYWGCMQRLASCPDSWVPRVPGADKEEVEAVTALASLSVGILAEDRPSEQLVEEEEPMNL
The experiment in a line: HDAC7 biochemical assay, class IIa-specific substrate. To be noted: read-out: HDAC Isoform IC50 (nM) 7. The essentials:
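Two-step fluorogenic readout: class IIa-selective trifluoroacetyl-lysine AMC substrate (50 μM) deacetylated by N-terminal GST-HDAC7 fragment (0.001 ng/ul), then digested by developer, Ex/Em 360/460. Reaction: 30 min, room temperature, Tris-HCl pH 8.0, NaCl/KCl/MgCl2, 1 mg/mL BSA, 1% DMSO.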

In another test the target is T4, Human HDAC10 (Homo sapiens, UniProt Q969S8).
T4 construct: Human HDAC10 (a.a. 1-481); GST (N); His (C); host or cells: baculovirus expression system
T4 sequence (Q969S8 1-481): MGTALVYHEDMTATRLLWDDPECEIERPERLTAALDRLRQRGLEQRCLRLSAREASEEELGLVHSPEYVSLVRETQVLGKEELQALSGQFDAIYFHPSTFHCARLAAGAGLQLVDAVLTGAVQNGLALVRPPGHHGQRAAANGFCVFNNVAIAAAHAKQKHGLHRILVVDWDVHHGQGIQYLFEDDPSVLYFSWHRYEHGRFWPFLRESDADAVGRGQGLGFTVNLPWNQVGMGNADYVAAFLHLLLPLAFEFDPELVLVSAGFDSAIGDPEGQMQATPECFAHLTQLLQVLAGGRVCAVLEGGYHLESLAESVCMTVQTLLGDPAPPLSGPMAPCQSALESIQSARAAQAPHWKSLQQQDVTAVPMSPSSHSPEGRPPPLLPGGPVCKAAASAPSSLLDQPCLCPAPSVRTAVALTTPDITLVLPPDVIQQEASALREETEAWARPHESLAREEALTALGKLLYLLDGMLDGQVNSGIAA
The experiment in a line: HDAC10 biochemical assay, AMC-labeled peptide substrate. To be noted: read-out: HDAC Isoform IC50 (nM) 10. The procedure, abridged: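 Two-step fluorogenic read-out (Ex/Em 360/460) after developer digestion of deacetylated RHKK(Ac)AMC (50 μM). Deacetylation ran 2 h at 30 °C with 12 ng/ul HDAC10 (aa 1-481, GST/His tags, baculovirus) in Tris-HCl pH 8.0, BSA, 1% DMSO.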

In another test the target is T5, Human HDAC9 (Homo sapiens, UniProt Q9UKV0).
T5 construct: amino acids 604-1066 with C-terminal His tag; His (C); host or cells: baculovirus expression system
Nature of the test: HDAC9 biochemical assay, class IIa-specific substrate. To be noted: read-out: HDAC Isoform IC50 (nM) 9. The procedure, abridged: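 HDAC9 residues 604-1066 (C-terminal His tag, baculovirus-expressed) at 0.06 ng/ul with 50 μM class IIa substrate Boc-Lys(trifluoroacetyl)-AMC in Tris-HCl pH 8.0 buffer with BSA and 1% DMSO. 30 min at room temperature, then developer added; fluorescence read at 360/460 nm Ex/Em.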

A value given as a limit tells only on which side of the number the result lay.

T2 sequence (Q92769 whole entry): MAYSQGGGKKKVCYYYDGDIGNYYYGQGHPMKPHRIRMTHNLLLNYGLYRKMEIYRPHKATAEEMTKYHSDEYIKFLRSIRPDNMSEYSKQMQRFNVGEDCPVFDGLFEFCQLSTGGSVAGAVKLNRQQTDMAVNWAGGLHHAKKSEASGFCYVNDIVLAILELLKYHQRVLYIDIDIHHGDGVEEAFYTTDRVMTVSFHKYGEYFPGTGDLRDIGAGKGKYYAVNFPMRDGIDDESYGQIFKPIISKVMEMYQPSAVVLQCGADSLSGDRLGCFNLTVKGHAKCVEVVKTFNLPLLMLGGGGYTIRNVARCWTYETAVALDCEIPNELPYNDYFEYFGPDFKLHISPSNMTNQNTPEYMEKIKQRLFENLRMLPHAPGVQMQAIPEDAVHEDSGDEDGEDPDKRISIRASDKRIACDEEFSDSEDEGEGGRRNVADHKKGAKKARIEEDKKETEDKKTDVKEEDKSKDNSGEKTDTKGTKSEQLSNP
T5 sequence (Q9UKV0 604-1066 isoform Q9UKV0-5): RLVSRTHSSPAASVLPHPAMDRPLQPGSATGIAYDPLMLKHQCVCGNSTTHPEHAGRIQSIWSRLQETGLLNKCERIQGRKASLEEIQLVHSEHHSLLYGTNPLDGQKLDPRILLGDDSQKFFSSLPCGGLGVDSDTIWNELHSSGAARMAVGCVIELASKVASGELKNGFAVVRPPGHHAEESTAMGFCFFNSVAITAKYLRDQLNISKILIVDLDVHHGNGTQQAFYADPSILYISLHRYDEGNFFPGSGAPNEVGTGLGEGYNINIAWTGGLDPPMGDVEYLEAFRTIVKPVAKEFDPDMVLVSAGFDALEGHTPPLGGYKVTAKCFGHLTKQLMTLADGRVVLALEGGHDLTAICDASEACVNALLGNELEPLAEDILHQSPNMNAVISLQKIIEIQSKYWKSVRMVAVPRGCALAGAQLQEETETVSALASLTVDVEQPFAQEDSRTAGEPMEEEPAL
T1 sequence (Q13547 whole entry): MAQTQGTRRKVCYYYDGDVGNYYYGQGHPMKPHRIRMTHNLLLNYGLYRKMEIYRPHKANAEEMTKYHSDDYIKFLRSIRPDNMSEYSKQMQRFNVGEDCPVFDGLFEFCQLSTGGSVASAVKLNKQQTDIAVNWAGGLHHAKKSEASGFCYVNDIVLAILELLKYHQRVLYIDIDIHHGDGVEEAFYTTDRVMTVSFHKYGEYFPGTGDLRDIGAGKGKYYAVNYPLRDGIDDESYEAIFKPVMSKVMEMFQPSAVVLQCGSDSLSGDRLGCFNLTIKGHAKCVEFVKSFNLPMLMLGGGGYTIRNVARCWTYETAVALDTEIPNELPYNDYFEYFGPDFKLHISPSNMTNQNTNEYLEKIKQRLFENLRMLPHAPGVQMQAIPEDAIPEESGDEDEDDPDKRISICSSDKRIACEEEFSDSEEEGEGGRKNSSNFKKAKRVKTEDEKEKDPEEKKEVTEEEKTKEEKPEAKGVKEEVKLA

The term IC50 denotes the concentration at which inhibition is half-maximal. Regarding `FC(F)(F)c1nc(-c2ccc(CN(c3ccncn3)c3cnccn3)s2)no1` [Example BZ, N-(Pyrazin-2-yl)-N-({5-[5-(trifluoromethyl)-1,2,4-oxadiazol-3-yl]thiophen-2-yl}methyl)pyrimidin-4-amine], the 50% inhibitory concentration (IC50) is > 10000 nM at Human HDAC1; > 10000 nM on Human HDAC2; ≤ 500 nM at Human HDAC7; > 10000 nM on Human HDAC10; ≤ 500 nM at Human HDAC9.

As for `CS(=O)(=O)c1nccc(N(Cc2ccc(-c3noc(C(F)(F)F)n3)s2)c2cnccn2)n1` [Example CE, 2-Methanesulfonyl-N-(pyrazin-2-yl)-N-({5-[5-(trifluoromethyl)-1,2,4-oxadiazol-3-yl]thiophen-2-yl}methyl)pyrimidin-4-amine], the IC50 was ≤ 10000 nM on Human HDAC1, ≤ 1000 nM at Human HDAC7 and ≤ 10000 nM at Human HDAC9.

As to `FC(F)(F)c1nc(-c2ccc(CN(c3cncnc3)c3cnccn3)s2)no1` [Example CR, N-(Pyrazin-2-yl)-N-({5-[5-(trifluoromethyl)-1,2,4-oxadiazol-3-yl]thiophen-2-yl}methyl)pyrimidin-5-amine], the IC50 at Human HDAC1 was > 10000 nM; on Human HDAC2, > 10000 nM; at Human HDAC7, ≤ 500 nM; on Human HDAC10, > 10000 nM; at Human HDAC9, ≤ 500 nM.

Turning to `FC(F)(F)c1ccc(N(Cc2ccc(-c3noc(C(F)(F)F)n3)s2)c2cnccn2)nn1` [Example DH, N-(Pyrazin-2-yl)-6-(trifluoromethyl)-N-({5-[5-(trifluoromethyl)-1,2,4-oxadiazol-3-yl]thiophen-2-yl}methyl)pyridazin-3-amine], the half-maximal inhibitory concentration (IC50) on Human HDAC1 was ≤ 10000 nM; on Human HDAC2, > 10000 nM; at Human HDAC7 it was ≤ 10000 nM; on Human HDAC10, > 10000 nM; at Human HDAC9, ≤ 10000 nM.

For the compound `FC(F)(F)c1nc(-c2ccc(CN(c3cnccn3)c3ccc(N4CCCC4)nn3)s2)no1` [Example DI, N-(Pyrazin-2-yl)-6-(pyrrolidin-1-yl)-N-({5-[5-(trifluoromethyl)-1,2,4-oxadiazol-3-yl]thiophen-2-yl}methyl)pyridazin-3-amine], the IC50 at Human HDAC1 is ≤ 10000 nM; at Human HDAC2, > 10000 nM; on Human HDAC7 it was ≤ 1000 nM; at Human HDAC10, > 10000 nM; at Human HDAC9 it was ≤ 10000 nM.

With `CS(=O)(=O)c1ccc(N(Cc2ccc(-c3noc(C(F)(F)F)n3)s2)c2cnccn2)nn1` [Example DL, 6-Methanesulfonyl-N-(pyrazin-2-yl)-N-({5-[5-(trifluoromethyl)-1,2,4-oxadiazol-3-yl]thiophen-2-yl}methyl)pyridazin-3-amine], the IC50 at Human HDAC1 was ≤ 10000 nM; at Human HDAC2 it was > 10000 nM; at Human HDAC7, ≤ 1000 nM; at Human HDAC10, > 10000 nM; at Human HDAC9, ≤ 10000 nM.

For the compound `FC(F)(F)c1nc(-c2ccc(CN(c3ccccn3)c3cnccn3)s2)no1` [Example V, N-(Pyridin-2-yl)-N-({5-[5-(trifluoromethyl)-1,2,4-oxadiazol-3-yl]thiophen-2-yl}methyl)pyrazin-2-amine], the half-maximal inhibitory concentration (IC50) was > 10000 nM at Human HDAC1; > 10000 nM on Human HDAC2; ≤ 10000 nM on Human HDAC7; > 10000 nM at Human HDAC10; ≤ 10000 nM at Human HDAC9.
